Bridge positions count the residues as written; N and C are the ends. Square brackets hold non-standard residues; d marks the D form. Peptide text beside a SMILES is read from it. * marks the point of attachment. Phe(4-COOH) = N[C@@H](Cc1ccc(C(=O)O)cc1)C(=O)O; Bip = N[C@@H](Cc1ccc(-c2ccccc2)cc1)C(=O)O; Phe(3-Me) = Cc1cccc(C[C@H](N)C(=O)O)c1; Cha = N[C@@H](CC1CCCCC1)C(=O)O; Carboxymethyl = O=C(O)C*; Orn = NCCC[C@H](N)C(=O)O; Aun = NCCCCCCCCCCC(=O)O; Dab = NCC[C@H](N)C(=O)O; Dap = NC[C@H](N)C(=O)O; AEEA = NCCOCCOCC(=O)O
Target: T1, PD-1/PD-L1 interaction (PE-labeled human PD-L1-Ig binding to Jurkat cell line over-expressing human PD-1) (Homo sapiens, UniProt Q15116)
T1 construct: expressed in transfected cells; host or cells: Jurkat
T1 sequence (Q15116 25-288): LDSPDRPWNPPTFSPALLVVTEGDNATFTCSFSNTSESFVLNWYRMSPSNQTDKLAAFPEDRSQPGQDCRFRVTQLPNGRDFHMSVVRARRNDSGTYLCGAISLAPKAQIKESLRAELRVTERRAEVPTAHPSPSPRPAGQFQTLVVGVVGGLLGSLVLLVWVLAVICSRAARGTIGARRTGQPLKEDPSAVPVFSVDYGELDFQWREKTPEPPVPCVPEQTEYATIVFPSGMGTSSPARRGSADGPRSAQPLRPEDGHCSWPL
Assay: Jurkat-PD-1 Cell Binding High-Content Screening Assay (CBA)
Type: cell-based
Conditions: Jurkat cell line over-expressing human PD-1; PE-labeled PD-L1-Ig 20 nM final; read-out: Jurkat hPD1-PDL1 IC50
Method in brief: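 First, compound is added to PD-1-expressing Jurkat cells in serum-containing DMEM and left 2 h at 37° C. Next, PE-conjugated PD-L1-Ig is introduced at 20 nM final concentration for 1 hour. Finally, cells are fixed in 4% paraformaldehyde with Hoechst 33342, washed and imaged.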

| IC50 | SMILES |
| --- | --- |
| 5.3 nM | CC(C)C[C@H]1NC(=O)[C@H](CCCN)NC(=O)[C@H](C(C)C)NC(=O)[C@H](Cc2ccc(-c3ccccc3)cc2)NC(=O)[C@H](C(C)C)NC(=O)[C@H](Cc2c[nH]c3ccccc23)NC(=O)[C@H](CC(=O)O)NC(=O)[C@H](Cc2ccc(C(=O)O)cc2)NC(=O)[C@H](Cc2ccc(OCC(=O)O)cc2)NC(=O)CSC[C@@H](C(=O)NCCOCCOCC(=O)N[C@@H](CCN)C(=O)NCCCCCCCCCCC(=O)O)NC(=O)[C@H](CCCCN)NC(=O)[C@H](C(C)C)NC(=O)[C@H](CC2CCCCC2)NC(=O)[C@H](CCN)NC1=O [Compound 2539] ({CH2CO}-Y(Carboxymethyl)[Phe(4-COOH)]DWV[Bip]V[Orn][dL][Dab][Cha]VKC[AEEA][Dab][Aun]-OH; thioether N-14) |
| 7 nM | CC(C)C[C@H]1NC(=O)[C@H](CCCN)NC(=O)[C@H](C(C)C)NC(=O)[C@H](Cc2ccc(-c3ccccc3)cc2)NC(=O)[C@H](C(C)C)NC(=O)[C@H](Cc2c[nH]c3ccccc23)NC(=O)[C@H](CC(=O)O)NC(=O)[C@H](Cc2ccc(OCC(=O)O)cc2)NC(=O)[C@H](Cc2ccc(OCC(=O)O)cc2)NC(=O)CSC[C@@H](C(=O)NCCOCCOCC(=O)N[C@@H](CCN)C(=O)NCCCCCCCCCCC(=O)O)NC(=O)[C@H](CCCNC(=N)N)NC(=O)[C@H](C(C)C)NC(=O)[C@H](CC2CCCCC2)NC(=O)[C@H](CCN)NC1=O [Compound 2540] ({CH2CO}-Y(Carboxymethyl)Y(Carboxymethyl)DWV[Bip]V[Orn][dL][Dab][Cha]VRC[AEEA][Dab][Aun]-OH; thioether N-14) |
| 7.6 nM | CC(C)C[C@H]1NC(=O)[C@H](CCCN)NC(=O)[C@H](C(C)C)NC(=O)[C@H](Cc2ccc(-c3ccccc3)cc2)NC(=O)[C@H](C(C)C)NC(=O)[C@H](Cc2c[nH]c3ccccc23)NC(=O)[C@H](CC(=O)O)NC(=O)[C@H](Cc2ccc(OCC(=O)O)cc2)NC(=O)[C@H](CN)NC(=O)CSC[C@@H](C(=O)NCCOCCOCC(=O)N[C@@H](CCN)C(=O)NCCCCCCCCCCC(=O)O)NC(=O)[C@H](CCCCN)NC(=O)[C@H](C(C)C)NC(=O)[C@H](CC2CCCCC2)NC(=O)[C@H](CCN)NC1=O [Compound 2541] ({CH2CO}-[Dap]Y(Carboxymethyl)DWV[Bip]V[Orn][dL][Dab][Cha]VKC[AEEA][Dab][Aun]-OH; thioether N-14) |
| 4.9 nM | Cc1cccc(C[C@@H]2NC(=O)[C@H](CC(=O)O)NC(=O)[C@H](Cc3ccc(OCC(=O)O)cc3)NC(=O)[C@H](CN)NC(=O)CSC[C@@H](C(=O)NCCOCCOCC(=O)N[C@@H](CCN)C(=O)NCCCCCCCCCCC(=O)O)NC(=O)[C@H](CN)NC(=O)[C@H](C(C)C)NC(=O)[C@H](CC3CCCCC3)NC(=O)[C@H](CCN)NC(=O)[C@@H](CC(C)C)NC(=O)[C@H](CCCN)NC(=O)[C@H](C(C)C)NC(=O)[C@H](Cc3ccc(-c4ccccc4)cc3)NC(=O)[C@H](C(C)C)NC2=O)c1 [Compound 2542] ({CH2CO}-[Dap]Y(Carboxymethyl)D[Phe(3-Me)]V[Bip]V[Orn][dL][Dab][Cha]V[Dap]C[AEEA][Dab][Aun]-OH; thioether N-14) |
| 9.5 nM | Cc1cccc(C[C@@H]2NC(=O)[C@H](CC(=O)O)NC(=O)[C@H](Cc3ccc(OCC(=O)O)cc3)NC(=O)[C@H](CN)NC(=O)CSC[C@@H](C(=O)NCCOCCOCC(=O)N[C@@H](CCN)C(=O)NCCCCCCCCCCC(=O)O)NC(=O)[C@H](CCCN)NC(=O)[C@H](C(C)C)NC(=O)[C@H](CC3CCCCC3)NC(=O)[C@H](CCN)NC(=O)[C@@H](CC(C)C)NC(=O)[C@H](CCCN)NC(=O)[C@H](C(C)C)NC(=O)[C@H](Cc3ccc(-c4ccccc4)cc3)NC(=O)[C@H](C(C)C)NC2=O)c1 [Compound 2543] ({CH2CO}-[Dap]Y(Carboxymethyl)D[Phe(3-Me)]V[Bip]V[Orn][dL][Dab][Cha]V[Orn]C[AEEA][Dab][Aun]-OH; thioether N-14) |
